For one data set, the target named is TEL-SYK (Homo sapiens, UniProt P43405). As to the kind of experiment: Cell-based proliferation assay on BaF3 model, TEL-SYK. The procedure: Cell-based proliferation and viability assay CellTiter-Bleue cell-based survival/proliferation assay (Promega G8080) was performed on BaF3 models.
A total of 1.10^4 cells/well/50 μl were seeded in a 96-wells plate. Treatment was initiated by addition of a 2× drug solution of ½ serial dilutions ranging from 0 to 10 μM. Cells were grown for 48-72 h at 37° C. and then incubated with 10 μl/well of Promega CellTiter-Bleue reagent for 4 h at 37° C. The amount of formazan dye formed was quantified by its absorbance at 450 nm using a scanning multiwell spectrophotometer (POLARstar Omega, BMG labtech, France). A blank well without cells was used as a background control for the spectrophotometer and all assays were performed in duplicates and the experiments were repeated at least twice.

Data set [1] concerns Murine bone marrow mast cells (BMMCs). The data set is described as follows: IgE-mediated mast cell degranulation assay (β-hexosaminidase release). Particulars: Mus musculus, BMMC. The format is cell-based, C57BL/6J mice. On the procedure:
In vitro mast cell degranulation assay monitored by released of β-hexosaminidase. Murine bone marrow mast cells (BMMCs) are obtained by flushing bone marrow cells from the femurs of C57BL/6J mice, then cultured for 3-4 weeks in RPMI containing mouse recombinant IL-3 (30 ng/ml). RBL-2H3 is a rat basophile cell line maintained in monolayer culture in EMEM supplemented with 20% FCS, 1 mM Glutamine and 1× antibiotics. Cells were sensitized overnight with 0.2 μg/ml anti-DNP-IgE (Sigma-Aldrich D8406). […] After incubation 90 min at 37° C., the reaction was quenched by addition of 100 μl of sodium carbonate buffer (0.1M Na2CO3/NaHCO3 pH 10.0). β-hexosaminidase activity was quantified by reading plate absorbance at 405 nm with reference at 620 nm using a PolarSTAR reader plate (BMG labech).
The activity of anti-SYK compounds was tested in an IgE-mediated mast cell degranulation assay. SYK has been identified to be critical for the initiation of mast cell mediator release following the aggregation of FcεRI.

Data set [2] is described as follows: WST-1 cell survival/proliferation assay on rat cardiomyocytes. Particulars: Rat Cardiac Myocyte. The format is cell-based. The procedure:
WST-1 cell survival/proliferation assay (Roche Diagnostic ref No 1644807) was performed on both primary human adult cardiomyocytes and rat neonatal cardiac myocytes.
Human cardiomyocytes were isolated from normal human ventricle tissue of the adult heart and were able to proliferate for a number of passage. Neonatal ventricular Clonetics® Rat Cardiac Myocytes (P1-3) retained their contractile property and were electrophysiologically active in culture. 1.10^4 primary rat cells or 2-2.5 10^4 adult human cells were plated per well of a 96 wells plates. The cells were allowed to adhere to the plates for 5 days before drug treatment. Treatment was initiated by addition of a 2× drug solution of ½ serial dilutions ranging from 0 to 10 μM. Cells were grown for 48 h at 37° C. and then incubated with 10 μl/well of WST-1 reagent for 4 h at 37° C. The amount of formazan dye formed was quantified by its absorbance at 450 nm using a scanning multiwell spectrophotometer (MultiSkan MS, Thermo-LabSystems, France). A blank well without cells was used as a background control for the spectrophotometer and all assays were performed in triplicate.

The next data set concerns human cardiomyocytes. The data set is described as follows: Intracellular ROS in human cardiomyocytes (CM-H2DCFDA). The format is cell-based. Particulars: 10 μM, 8 hours. The procedure: 2×10^3 human cardiomyocytes (Promocell C-12810) or 4×10^4 rat neonatal cardiac myocytes (R-CM-561 Lonza) were seeded per well of a 96-well plate (black wall for fluorimetry usage (655090 Greiner Bio one)) 24 hours before drug treatment. Treatment was initiated by addition of a drug solution for a 10 μM final concentration. Doxorubicin was used at 5 μM as positive control for the induction of ROS. After 8 hours treatment with drugs, cells were loaded with 10 μM of CM-H2DCFDA (C6827 Invitrogen) for 1 hour, followed by 2 washes in PBS. CM-H2DCFDA is a membrane permeable reagent that can be enzymatically converted to dichlorodihydrofluorescein (DCF) in the presence of ROS. Fluorescent DCF was detected using a fluorescence spectrophotometer (BMG Labtech) with excitation of 485 nm and emission of 560 nm. The results were expressed as a relative percent of DCF-fluorescence in control cells.
Monitoring drug-induced increase in the production of reactive oxygen species (ROS) in cardiomyocyte may be important to predict the cardiotoxic side effects of a drug (Table 11). The production of ROS in human and rat cardiomyocytes was studied following 8 hours drug treatment at concentration of 10 μM. The results were expressed as a percent relative to the production of ROS induced by the cardiotoxic chemotherapeutic agent doxorubicin (100%).

Data set [3] has as its system Salmonella typhimurium strain TA100. The procedure: Mutagenic activity of test compounds and their metabolites (produced by rat liver S9 fraction) was evaluated in the Salmonella typhimurium strains TA100 and TA98 according to the Ames assay (Toxicology in vitro, (2001), 15: 105-114). […] The results are expressed as a mutagenicity ratio in comparison to solvent controls.
The results are expressed as a ratio of the number of colonies over the number of colonies in the negative control (DMSO).

Each structure is given as a SMILES string. Where two headings read alike, the source gives them in different places.

On to `Cc1ccnc(Nc2cccc(-c3cnc(N4CCNC(=O)C45CC5)o3)c2)n1` [Compound 001, 4-{5-[3-(4-Methyl-pyrimidin-2-ylamino)-phenyl]-oxazol-2-yl}-4,7-diaza-spiro[2.5]octan-8-one], for which the results for the IC50 (on TEL-SYK (read-out: Kinase activity profile IC50 Tel-Syk); on TEL-SYK (read-out: TEL-SYK IC50); in data set [1] (read-out: inhibiting mast cell degranulation IC50)) were 272 nM, 270 nM and 50 nM, respectively. Moreover, the activity at 0.01 µM in data set [1] (0.01 μM, read-out: β-hexosaminidase activity (% control untreated cells)) was 88 ± 14%. In addition, in data set [1] (0.1 μM, read-out: β-hexosaminidase activity (% control untreated cells)), the activity at 0.1 µM worked out at 32 ± 9%. For the same molecule, the activity at 1 µM in data set [1] (1 μM, read-out: β-hexosaminidase activity (% control untreated cells)) was 3 ± 5%. Moreover, the IC50 at 48 h in data set [2] (neonatal ventricular rat cardiac myocytes (Clonetics, P1-3), 48 h, read-out: Drug-induced cytotoxicity IC50, Rat-CM) came out at 10 µM. Further, in data set [2] (rat neonatal cardiac myocytes, 1 μM), the viability change vs untreated control at 48 h, 1 µM was -2%. Besides, the “ROS production, activity relative to doxorubicine (100%), Hu-CM” value in the data set with human cardiomyocytes is 0%. Also, the mutagenic activity result in data set [3] was “did not show any mutagenic activity”.

By IC50 is commonly meant the concentration at which inhibition is half-maximal.

(Values after patent US10053455B2, “Diazaspiroalkaneone-substituted oxazole derivatives as spleen tyrosine kinase inhibitors” (AB SCIENCE, priority 2014, dated 2018).)
